One data set is filed under the species Bos taurus. In words: Association constant of binding of compound with calf thymus DNA was determined by using equilibrium dialysis. The settings on record: cattle.
The nature of data set [1]: Partition Coefficient in n-octanol / water medium. Type of data set: physicochemical.
Data set [2] is described as follows: Solubility of compound in water. It counts as physicochemical. As to conditions: for solubility: water, read-out: S.
The test system of data set [3] is Ehrlich. The experiment in a line: Compound was tested for the inhibition of DNA synthesis in Ehrlich cells by incubation in the dark relative to furoquinolinone. Type of data set: functional, Mus musculus.
Data set [4] relates to Ehrlich. The experiment in a line: Compound was tested for the inhibition of RNA synthesis in Ehrlich cells by UV -A Irradiation relative to furoquinolinone. It counts as functional, Mus musculus.
Data set [5] concerns Ehrlich. In words: Compound was tested for the inhibition of RNA synthesis in Ehrlich cells by incubation in the dark relative to furoquinolinone. It counts as functional, Mus musculus.
Data set [6] relates to Ehrlich. In words: Compound was tested for the inhibition of DNA synthesis in Ehrlich cells by incubation in the dark. It counts as functional. As to conditions: Mus musculus, read-out: ID50 (the source's name).
Data set [7] has as its system Ehrlich. The experiment in a line: Compound was tested for the inhibition of RNA synthesis in Ehrlich cells by incubation in the dark. Type of data set: functional. As to conditions: Mus musculus, read-out: ID50 (the source's name).
Data set [8] concerns Ehrlich. In words: Compound was tested for the inhibition of DNA synthesis in Ehrlich cells by UV -A Irradiation relative to furoquinolinone. Type of data set: functional, Mus musculus.
The test system of data set [9] is Ehrlich. In words: Compound was tested for the inhibition of DNA synthesis in Ehrlich cells by UV -A Irradiation. Type of data set: functional, Mus musculus.
Data set [10] has as its system Ehrlich. In words: Compound was tested for the inhibition of RNA synthesis in Ehrlich cells by UV -A Irradiation. It counts as functional, Mus musculus.
Data set [11] is described as follows: Surviving fraction was evaluated at concentration 2 uM in T2 phage. Type of data set: functional.
A short description of data set [12]: Surviving fraction was evaluated at concentration 4 uM in T2 phage. It counts as functional.

The structures appear in SMILES notation. ≈ marks a conversion by molar mass, not a printed value.

For the compound `Cc1cc2c(o1)c(C)cc1c(C)cc(=O)n(C)c12`, the K in the data set filed under Bos taurus was 11700 M⁻¹. In [1], this compound returned a Partition coefficient of 163.5. Besides, in [2], the solubility worked out at 4700 µg/mL (≈ 19.5 mM). Further, the Relative activity in the data set with Ehrlich [3] was 1; in the data set with Ehrlich [4], 461; with Ehrlich [5] it was 1; with Ehrlich [8] it was 77.6. In addition, the IC50 with Ehrlich [6] was 2.33 µM; in the data set on Ehrlich [7] it was 1.35 µM. The results for the Du in the data set on Ehrlich [9] and in the data set on Ehrlich [10] were 0.9 and 0.803, respectively. The compound also registered a Surviving fraction in data set [11] of 0.69.

For `Cc1oc2c(C)cc3c(C)cc(=O)[nH]c3c2c1C`, the Relative activity in the data set on Ehrlich [3] is on record as 0.0926; in the data set on Ehrlich [4] it was 582; in the data set with Ehrlich [5], 0.256; with Ehrlich [8] it was 102.6. Also, the IC50 in the data set on Ehrlich [6] is 25.2 µM; in the data set on Ehrlich [7] it was 5.27 µM. Also, the values for the Du with Ehrlich [9] and in the data set on Ehrlich [10] were 1.19 and 1.048, respectively. Moreover, the Surviving fraction in data set [12] stood at 0.7.

As for `Cc1cc2c(o1)c(C)cc1c(C)cc(=O)oc12`, in the data set filed under Bos taurus, the K amounted to 10100 M⁻¹. Besides, the Partition coefficient in [1] stood at 1897. For the same compound, in data set [2], the solubility was 1460 µg/mL (≈ 6.4 mM). For the same compound, the Relative activity with Ehrlich [4] came out at 16.83; in the data set on Ehrlich [8], 4.14. Moreover, the Du in the data set with Ehrlich [9] was 0.0481; with Ehrlich [10], 0.0303. In addition, the Surviving fraction in [11] is 0.6.

Regarding `COc1c2occc2cc2ccc(=O)oc12` [METHOXSALEN], in the data set filed under Bos taurus, the K was found to be 736 M⁻¹. Also, in data set [2] (buffer), the S turned out to be 23 mg/mL. Also, the Relative activity with Ehrlich [4] and in the data set with Ehrlich [8] was 1 each time. In addition, the Du amounted to 0.0116 with Ehrlich [9] and 0.0018 with Ehrlich [10]. For the same compound, in data set [11], the Surviving fraction was 0.8.
